{"source": "patent US10344060B2", "about": "(priority 2013, dated 2019)", "key": {"hNav1.4": {"molecular_target": "hNav1.4 (Homo sapiens, UniProt P35499)", "sequence (P35499 whole entry)": "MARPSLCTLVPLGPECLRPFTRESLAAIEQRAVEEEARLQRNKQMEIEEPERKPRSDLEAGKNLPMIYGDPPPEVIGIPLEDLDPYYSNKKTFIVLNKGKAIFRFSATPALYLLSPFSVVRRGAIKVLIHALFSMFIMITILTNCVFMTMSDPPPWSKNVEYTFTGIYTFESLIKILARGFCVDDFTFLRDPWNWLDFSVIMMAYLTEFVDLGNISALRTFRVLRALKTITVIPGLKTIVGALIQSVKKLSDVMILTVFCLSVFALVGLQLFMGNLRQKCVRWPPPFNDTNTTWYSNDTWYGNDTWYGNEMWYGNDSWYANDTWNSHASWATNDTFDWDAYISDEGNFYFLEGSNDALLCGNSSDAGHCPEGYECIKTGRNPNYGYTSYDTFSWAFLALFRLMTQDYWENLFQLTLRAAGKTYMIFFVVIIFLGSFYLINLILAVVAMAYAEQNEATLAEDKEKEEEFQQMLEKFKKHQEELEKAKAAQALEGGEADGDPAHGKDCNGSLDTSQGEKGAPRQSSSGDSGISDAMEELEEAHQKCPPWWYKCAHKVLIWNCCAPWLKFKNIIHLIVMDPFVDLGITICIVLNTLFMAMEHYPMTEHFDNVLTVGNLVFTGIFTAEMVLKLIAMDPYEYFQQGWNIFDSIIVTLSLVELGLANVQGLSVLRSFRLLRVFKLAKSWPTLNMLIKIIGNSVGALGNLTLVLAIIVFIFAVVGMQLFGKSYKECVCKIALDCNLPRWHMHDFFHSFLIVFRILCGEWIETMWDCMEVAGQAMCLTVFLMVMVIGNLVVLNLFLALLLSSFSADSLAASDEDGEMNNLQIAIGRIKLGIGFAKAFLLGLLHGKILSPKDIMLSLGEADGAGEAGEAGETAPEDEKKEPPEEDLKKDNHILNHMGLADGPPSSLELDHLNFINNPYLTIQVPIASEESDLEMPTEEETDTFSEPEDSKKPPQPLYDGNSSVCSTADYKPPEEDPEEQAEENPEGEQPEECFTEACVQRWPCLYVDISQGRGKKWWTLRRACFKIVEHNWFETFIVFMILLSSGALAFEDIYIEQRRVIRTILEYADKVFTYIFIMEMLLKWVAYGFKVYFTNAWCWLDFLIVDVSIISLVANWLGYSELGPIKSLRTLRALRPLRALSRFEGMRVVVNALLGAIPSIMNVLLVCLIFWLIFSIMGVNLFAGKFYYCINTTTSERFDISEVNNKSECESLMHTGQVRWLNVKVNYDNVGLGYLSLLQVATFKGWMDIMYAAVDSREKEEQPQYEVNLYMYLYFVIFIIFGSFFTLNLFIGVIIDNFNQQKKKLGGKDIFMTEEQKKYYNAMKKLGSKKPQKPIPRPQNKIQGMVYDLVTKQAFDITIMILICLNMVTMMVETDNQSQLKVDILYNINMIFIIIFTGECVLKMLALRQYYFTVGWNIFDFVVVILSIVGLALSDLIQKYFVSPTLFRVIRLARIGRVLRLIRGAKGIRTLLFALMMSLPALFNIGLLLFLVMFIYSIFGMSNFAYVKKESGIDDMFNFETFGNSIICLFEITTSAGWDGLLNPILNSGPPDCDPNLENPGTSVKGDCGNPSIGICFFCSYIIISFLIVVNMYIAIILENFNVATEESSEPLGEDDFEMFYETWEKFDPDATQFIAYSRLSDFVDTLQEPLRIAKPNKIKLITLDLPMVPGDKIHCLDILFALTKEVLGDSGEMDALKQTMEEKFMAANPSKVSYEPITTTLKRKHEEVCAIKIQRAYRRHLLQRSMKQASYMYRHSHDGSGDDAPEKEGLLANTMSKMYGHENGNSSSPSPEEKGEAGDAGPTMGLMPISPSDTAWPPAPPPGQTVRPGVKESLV", "assay": "cell-based", "format": "cell-based", "conditions": "Table 12; for IC50: PatchXpress, tonic block, read-out: PX hNav1.4 Tonic IC50; for Nav1.4/Nav1.7: ratio of PX tonic IC50 values"}, "hNav1.7": {"molecular_target": "hNav1.7 (Homo sapiens, UniProt Q15858)", "sequence (Q15858 whole entry)": "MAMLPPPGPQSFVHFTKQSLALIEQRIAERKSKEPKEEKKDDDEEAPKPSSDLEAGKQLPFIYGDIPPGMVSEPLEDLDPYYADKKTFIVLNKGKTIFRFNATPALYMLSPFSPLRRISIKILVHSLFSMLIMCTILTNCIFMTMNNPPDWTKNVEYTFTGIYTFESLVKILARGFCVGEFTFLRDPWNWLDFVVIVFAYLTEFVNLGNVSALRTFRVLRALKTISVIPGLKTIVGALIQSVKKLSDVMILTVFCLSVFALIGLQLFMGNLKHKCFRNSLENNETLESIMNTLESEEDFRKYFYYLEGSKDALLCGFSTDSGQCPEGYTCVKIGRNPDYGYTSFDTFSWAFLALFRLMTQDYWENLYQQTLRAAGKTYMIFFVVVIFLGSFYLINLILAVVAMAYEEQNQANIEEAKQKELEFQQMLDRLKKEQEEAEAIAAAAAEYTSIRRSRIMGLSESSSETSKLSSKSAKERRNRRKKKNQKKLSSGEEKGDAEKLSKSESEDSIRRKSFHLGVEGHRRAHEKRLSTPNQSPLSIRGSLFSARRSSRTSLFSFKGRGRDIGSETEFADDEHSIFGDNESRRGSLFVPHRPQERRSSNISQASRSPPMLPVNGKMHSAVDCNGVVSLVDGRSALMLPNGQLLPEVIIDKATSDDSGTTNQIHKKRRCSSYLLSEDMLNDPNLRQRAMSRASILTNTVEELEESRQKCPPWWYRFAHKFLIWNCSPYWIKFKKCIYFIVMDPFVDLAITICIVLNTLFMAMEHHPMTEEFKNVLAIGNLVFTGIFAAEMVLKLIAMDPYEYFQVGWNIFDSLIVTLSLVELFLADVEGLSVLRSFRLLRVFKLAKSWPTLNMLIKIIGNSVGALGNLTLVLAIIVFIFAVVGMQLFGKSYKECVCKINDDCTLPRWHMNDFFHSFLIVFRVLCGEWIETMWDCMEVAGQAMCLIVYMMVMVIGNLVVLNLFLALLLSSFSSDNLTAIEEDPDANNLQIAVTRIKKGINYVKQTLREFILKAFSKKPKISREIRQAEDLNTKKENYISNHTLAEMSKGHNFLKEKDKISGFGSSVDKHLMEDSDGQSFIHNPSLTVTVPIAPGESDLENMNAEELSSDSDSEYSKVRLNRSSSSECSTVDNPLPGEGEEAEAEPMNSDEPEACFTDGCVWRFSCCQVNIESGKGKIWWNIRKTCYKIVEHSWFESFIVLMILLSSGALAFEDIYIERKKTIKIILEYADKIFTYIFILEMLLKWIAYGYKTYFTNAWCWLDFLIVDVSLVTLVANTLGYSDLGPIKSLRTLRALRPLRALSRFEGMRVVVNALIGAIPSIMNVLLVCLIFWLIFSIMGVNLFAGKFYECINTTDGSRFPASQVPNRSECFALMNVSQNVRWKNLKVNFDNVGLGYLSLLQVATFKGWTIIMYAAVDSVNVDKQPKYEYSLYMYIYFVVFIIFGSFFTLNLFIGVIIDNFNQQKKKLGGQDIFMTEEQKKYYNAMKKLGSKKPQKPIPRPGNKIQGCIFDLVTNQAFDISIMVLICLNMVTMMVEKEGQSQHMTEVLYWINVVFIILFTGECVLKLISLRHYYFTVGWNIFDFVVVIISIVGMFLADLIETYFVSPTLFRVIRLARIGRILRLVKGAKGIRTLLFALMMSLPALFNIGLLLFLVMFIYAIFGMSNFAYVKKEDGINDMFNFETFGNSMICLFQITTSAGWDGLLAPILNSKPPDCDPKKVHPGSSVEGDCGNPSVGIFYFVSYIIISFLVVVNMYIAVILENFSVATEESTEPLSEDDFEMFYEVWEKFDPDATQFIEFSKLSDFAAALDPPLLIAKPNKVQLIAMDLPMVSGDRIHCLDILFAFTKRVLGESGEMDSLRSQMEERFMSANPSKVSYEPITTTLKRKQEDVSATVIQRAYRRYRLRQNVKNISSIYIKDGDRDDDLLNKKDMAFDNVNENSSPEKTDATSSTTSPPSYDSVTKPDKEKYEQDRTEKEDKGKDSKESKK", "assay": "cell-based", "format": "cell-based", "conditions": "Table 12; PatchXpress, tonic block; read-out: PX hNav1.7 Tonic IC50"}}, "note": "Bridge positions count the residues as written; N and C are the ends. Square brackets hold non-standard residues; d marks the D form. Peptide text beside a SMILES is read from it. Cha = N[C@@H](CC1CCCCC1)C(=O)O; Ala(CN) = N#CC[C@H](N)C(=O)O; Nle = CCCC[C@H](N)C(=O)O; Pra = C#CC[C@H](N)C(=O)O"}
{"compound": "C#CC[C@H](N)C(=O)N[C@@H](Cc1ccc(O)cc1)C(=O)N[C@H]1CSSC[C@@H]2NC(=O)[C@@H]3CSSC[C@@H](C(=O)N[C@@H](CCCNC(=N)N)C(=O)N[C@@H](CCCCN)C(=O)N[C@@H](CCC(=O)O)C(=O)N[C@H](C(N)=O)[C@@H](C)CC)NC(=O)[C@H](Cc4c[nH]c5ccccc45)NC(=O)[C@H](CC4CCCCC4)NC(=O)[C@H](CCCCN)NC(=O)[C@H](CSSC[C@H](NC(=O)[C@H]([C@@H](C)O)NC(=O)[C@H](Cc4c[nH]c5ccccc45)NC(=O)[C@H](CCCC)NC(=O)[C@H](Cc4c[nH]c5ccccc45)NC(=O)[C@H](CCCCN)NC(=O)[C@H](CCC(N)=O)NC1=O)C(=O)N[C@@H](CC(=O)O)C(=O)N[C@@H](CO)C(=O)N[C@@H](CCCCN)C(=O)N[C@@H](CCCNC(=N)N)C(=O)N[C@@H](C)C(=O)N3)NC(=O)[C@H](CCCNC(=N)N)NC(=O)[C@H](CC(C)C)NC(=O)CNC(=O)[C@H](CCC(=O)O)NC2=O", "note": "[compound 860]", "values": [{"measurement": "IC50", "setting": "hNav1.4", "value": 117, "unit": "nM"}, {"measurement": "Nav1.4/Nav1.7", "setting": "hNav1.4", "value": 73}, {"measurement": "IC50", "setting": "hNav1.7", "value": 1.61, "unit": "nM"}]}
{"compound": "C#CC[C@H](N)C(=O)N[C@@H](Cc1ccc(O)cc1)C(=O)N[C@H]1CSSC[C@@H]2NC(=O)[C@@H]3CSSC[C@@H](C(=O)N[C@@H](CCCNC(=N)N)C(=O)N[C@@H](CCCCN)C(=O)N[C@@H](CCC(=O)O)C(=O)N[C@@H](Cc4ccccc4)C(N)=O)NC(=O)[C@H](Cc4c[nH]c5ccccc45)NC(=O)[C@H](CC(C)C)NC(=O)[C@H](CCCCN)NC(=O)[C@H](CSSC[C@H](NC(=O)[C@H]([C@@H](C)O)NC(=O)[C@H](Cc4c[nH]c5ccccc45)NC(=O)[C@H](CCCC)NC(=O)[C@H](Cc4c[nH]c5ccccc45)NC(=O)[C@H](CCCCN)NC(=O)[C@H](CCC(N)=O)NC1=O)C(=O)N[C@@H](CC(=O)O)C(=O)N[C@@H](CO)C(=O)N[C@@H](CCCCN)C(=O)N[C@@H](CCCNC(=N)N)C(=O)N[C@@H](C)C(=O)N3)NC(=O)[C@H](CCCNC(=N)N)NC(=O)[C@H](CC(C)C)NC(=O)CNC(=O)[C@H](CCC(=O)O)NC2=O", "note": "[compound 861]", "values": [{"measurement": "IC50", "setting": "hNav1.4", "value": 304, "unit": "nM"}, {"measurement": "Nav1.4/Nav1.7", "setting": "hNav1.4", "value": 785}, {"measurement": "IC50", "setting": "hNav1.7", "value": 0.388, "unit": "nM"}]}
{"compound": "C#CC[C@H](N)C(=O)N[C@@H](Cc1ccc(O)cc1)C(=O)N[C@H]1CSSC[C@@H]2NC(=O)[C@@H]3CSSC[C@@H](C(=O)N[C@@H](CCCNC(=N)N)C(=O)N[C@@H](CCCCN)C(=O)N[C@@H](CCC(=O)O)C(=O)N[C@@H](CC4CCCCC4)C(N)=O)NC(=O)[C@H](Cc4c[nH]c5ccccc45)NC(=O)[C@H](CC(C)C)NC(=O)[C@H](CCCCN)NC(=O)[C@H](CSSC[C@H](NC(=O)[C@H]([C@@H](C)O)NC(=O)[C@H](Cc4c[nH]c5ccccc45)NC(=O)[C@H](CCCC)NC(=O)[C@H](Cc4c[nH]c5ccccc45)NC(=O)[C@H](CCCCN)NC(=O)[C@H](CCC(N)=O)NC1=O)C(=O)N[C@@H](CC(=O)O)C(=O)N[C@@H](CO)C(=O)N[C@@H](CCCCN)C(=O)N[C@@H](CCCNC(=N)N)C(=O)N[C@@H](C)C(=O)N3)NC(=O)[C@H](CCCNC(=N)N)NC(=O)[C@H](CC(C)C)NC(=O)CNC(=O)[C@H](CCC(=O)O)NC2=O", "note": "[compound 862]", "values": [{"measurement": "IC50", "setting": "hNav1.4", "value": 36.6, "unit": "nM"}, {"measurement": "Nav1.4/Nav1.7", "setting": "hNav1.4", "value": 62}, {"measurement": "IC50", "setting": "hNav1.7", "value": 0.593, "unit": "nM"}]}
{"compound": "C#CC[C@H](N)C(=O)N[C@@H](Cc1ccc(O)cc1)C(=O)N[C@H]1CSSC[C@@H]2NC(=O)[C@@H]3CSSC[C@@H](C(=O)N[C@@H](CCCNC(=N)N)C(=O)N[C@@H](CCCCN)C(=O)N[C@@H](CCC(=O)O)C(=O)N[C@H](C(N)=O)[C@@H](C)CC)NC(=O)[C@H](Cc4c[nH]c5ccccc45)NC(=O)[C@H](CC(C)C)NC(=O)[C@H](CCCCN)NC(=O)[C@H](CSSC[C@H](NC(=O)[C@H]([C@@H](C)O)NC(=O)[C@H](Cc4c[nH]c5ccccc45)NC(=O)[C@H](Cc4ccccc4)NC(=O)[C@H](Cc4c[nH]c5ccccc45)NC(=O)[C@H](CCCCN)NC(=O)[C@H](CCC(N)=O)NC1=O)C(=O)N[C@@H](CC(=O)O)C(=O)N[C@@H](CO)C(=O)N[C@@H](CCCCN)C(=O)N[C@@H](CCCNC(=N)N)C(=O)N[C@@H](C)C(=O)N3)NC(=O)[C@H](CCCNC(=N)N)NC(=O)[C@H](CC(C)C)NC(=O)CNC(=O)[C@H](CCC(=O)O)NC2=O", "note": "[compound 863]", "values": [{"measurement": "IC50", "setting": "hNav1.4", "value": 61.6, "unit": "nM"}, {"measurement": "Nav1.4/Nav1.7", "setting": "hNav1.4", "value": 45}, {"measurement": "IC50", "setting": "hNav1.7", "value": 1.36, "unit": "nM"}]}
{"compound": "C#CC[C@@H]1NC(=O)[C@@H]2CSSC[C@H](NC(=O)[C@H](CCC(=O)O)NC(=O)[C@@H](N)CC#N)C(=O)N[C@@H](CCC(N)=O)C(=O)N[C@@H](CCCCN)C(=O)N[C@@H](Cc3c[nH]c4ccccc34)C(=O)N[C@@H](CCCC)C(=O)N[C@@H](Cc3c[nH]c4ccccc34)C(=O)N[C@@H]([C@@H](C)O)C(=O)N[C@H]3CSSC[C@H](NC(=O)[C@H](CCCNC(=N)N)NC(=O)[C@H](CC(C)C)NC(=O)CNC1=O)C(=O)N[C@@H](CCCCN)C(=O)N[C@@H](CC(C)C)C(=O)N[C@@H](Cc1c[nH]c4ccccc14)C(=O)N[C@H](C(=O)N[C@@H](CCCNC(=N)N)C(=O)N[C@@H](CCCCN)C(=O)N[C@@H](CCC(=O)O)C(=O)N[C@@H](CC1CCCCC1)C(N)=O)CSSC[C@H](NC(=O)[C@H](C)NC(=O)[C@H](CCCNC(=N)N)NC(=O)[C@H](CCCCN)NC(=O)[C@H](CO)NC(=O)[C@H](CC(=O)O)NC3=O)C(=O)N2", "note": "[compound 866]", "values": [{"measurement": "IC50", "setting": "hNav1.4", "value": 37.6, "unit": "nM"}, {"measurement": "Nav1.4/Nav1.7", "setting": "hNav1.4", "value": 117}, {"measurement": "IC50", "setting": "hNav1.7", "value": 0.321, "unit": "nM"}]}
{"compound": "C#CC[C@@H]1NC(=O)[C@@H]2CSSC[C@H](NC(=O)[C@H](CCC(=O)O)NC(=O)[C@@H](N)CC#N)C(=O)N[C@@H](CCC(N)=O)C(=O)N[C@@H](CCCCN)C(=O)N[C@@H](Cc3c[nH]c4ccccc34)C(=O)N[C@@H](CCCC)C(=O)N[C@@H](Cc3c[nH]c4ccccc34)C(=O)N[C@@H]([C@@H](C)O)C(=O)N[C@H]3CSSC[C@H](NC(=O)[C@H](CCCNC(=N)N)NC(=O)[C@H](CC(C)C)NC(=O)CNC1=O)C(=O)N[C@@H](CCCCN)C(=O)N[C@@H](CC(C)C)C(=O)N[C@@H](Cc1c[nH]c4ccccc14)C(=O)N[C@H](C(=O)N[C@@H](CCCNC(=N)N)C(=O)N[C@@H](CCCCN)C(=O)N[C@@H](CCC(=O)O)C(=O)N[C@@H](CC1CCCCC1)C(N)=O)CSSC[C@H](NC(=O)[C@H](C)NC(=O)[C@H](CCCNC(=N)N)NC(=O)[C@H](CCCCN)NC(=O)[C@H](CCC(=O)O)NC(=O)[C@H](CC(=O)O)NC3=O)C(=O)N2", "note": "[compound 869] (H-[Ala(CN)]ECQKW[Nle]WTCDEKRACC[Pra]GLRCKLWCRKE[Cha]-NH2; disulfide 3-17, 10-22, 16-26)", "values": [{"measurement": "IC50", "setting": "hNav1.4", "value": 294, "unit": "nM"}, {"measurement": "Nav1.4/Nav1.7", "setting": "hNav1.4", "value": 311}, {"measurement": "IC50", "setting": "hNav1.7", "value": 0.95, "unit": "nM"}]}
{"compound": "C#CC[C@H](N)C(=O)N[C@@H](Cc1ccc(O)cc1)C(=O)N[C@H]1CSSC[C@@H]2NC(=O)[C@@H]3CSSC[C@@H](C(=O)N[C@@H](CCCNC(=N)N)C(=O)N[C@@H](CCCCN)C(=O)N[C@H](C(=O)N[C@H](C(N)=O)[C@@H](C)CC)[C@@H](C)CC)NC(=O)[C@H](Cc4c[nH]c5ccc(Br)cc45)NC(=O)[C@H](CC(C)C)NC(=O)[C@H](CCCCN)NC(=O)[C@H](CSSC[C@H](NC(=O)[C@H]([C@@H](C)O)NC(=O)[C@H](Cc4c[nH]c5ccccc45)NC(=O)[C@H](CCCC)NC(=O)[C@H](Cc4c[nH]c5ccccc45)NC(=O)[C@H](CCCCN)NC(=O)[C@H](CCC(N)=O)NC1=O)C(=O)N[C@@H](CC(=O)O)C(=O)N[C@@H](CO)C(=O)N[C@@H](CCCCN)C(=O)N[C@@H](CCCNC(=N)N)C(=O)N[C@@H](C)C(=O)N3)NC(=O)[C@H](CCCNC(=N)N)NC(=O)[C@H](CC(C)C)NC(=O)CNC(=O)[C@H](CCC(=O)O)NC2=O", "note": "[compound 871]", "values": [{"measurement": "IC50", "setting": "hNav1.4", "value": 11, "unit": "nM"}, {"measurement": "Nav1.4/Nav1.7", "setting": "hNav1.4", "value": 7}, {"measurement": "IC50", "setting": "hNav1.7", "value": 1.66, "unit": "nM"}]}
